{
  "source": "ChEMBL document CHEMBL1126428",
  "about": "“Inhibitors of myo-inositol monophosphatase unrelated to the enzyme substrate” (Bioorg Med Chem Lett, 1992)",
  "molecular_target": "T1, Inositol monophosphatase 1 (Bos taurus, UniProt P20456)",
  "T1 sequence (P20456 whole entry)": "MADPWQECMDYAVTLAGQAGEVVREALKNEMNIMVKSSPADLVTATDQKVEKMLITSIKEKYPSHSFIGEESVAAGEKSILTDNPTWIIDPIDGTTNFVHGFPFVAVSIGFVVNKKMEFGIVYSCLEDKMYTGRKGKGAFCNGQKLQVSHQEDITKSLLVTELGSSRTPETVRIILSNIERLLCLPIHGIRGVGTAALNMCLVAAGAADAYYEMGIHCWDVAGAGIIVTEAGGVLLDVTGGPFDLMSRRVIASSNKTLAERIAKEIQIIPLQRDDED",
  "assay": "Concentration required for 50% inhibition of Inositol monophosphatase",
  "data": [
    {"smiles": "COc1ccc(C(O)(P(=O)(O)O)P(=O)(O)O)cc1", "values": [
      {"measurement": "IC50", "value": 40, "unit": "µM"}
    ]},
    {"smiles": "CN(C)c1ccc(C(O)(P(=O)(O)O)P(=O)(O)O)cc1", "values": [
      {"measurement": "IC50", "value": 140, "unit": "µM"}
    ]},
    {"smiles": "O=P(O)(O)C(O)(c1ccccc1)P(=O)(O)O", "values": [
      {"measurement": "IC50", "value": 29, "unit": "µM"}
    ]},
    {"smiles": "O=P(O)(O)C(O)(c1ccc(Cl)cc1)P(=O)(O)O", "values": [
      {"measurement": "IC50", "value": 36, "unit": "µM"}
    ]},
    {"smiles": "CC(O)(P(=O)(O)O)P(=O)(O)O", "note": "[ETIDRONIC ACID]", "values": [
      {"measurement": "IC50", "value": 110, "unit": "µM"}
    ]},
    {"smiles": "O=P(O)(O)C(O)(c1ccc(Oc2cccc3c2CCCC3)cc1)P(=O)(O)O", "values": [
      {"measurement": "IC50", "value": 0.61, "unit": "µM"}
    ]},
    {"smiles": "O=P(O)(O)C(O)(Cc1ccccc1)P(=O)(O)O", "values": [
      {"measurement": "IC50", "value": 38, "unit": "µM"}
    ]},
    {"smiles": "O=P(O)(O)C(O)(Cc1ccc(Cl)cc1Cl)P(=O)(O)O", "values": [
      {"measurement": "IC50", "value": 23, "unit": "µM"}
    ]}
  ]
}
